Experimental findings from PMC10947176, “The Antimicrobial Properties of Pd^II− and Ru^II−pyta Complexes” (Chembiochem, 2023) are described below.

As usually defined, the MIC is the lowest concentration found to suppress growth.

What all share (assay): MIC against extended fungal panel
Assay [1] concerns Candida tropicalis ATCC 750. The assay is classed as cell-based. As to the method:
(§1) The extended panel contained four Candida and two Cryptococcus strains (Table 1).
(§2) Antifungal data collection: Fungi strains were cultured for 3 days on yeast extract‐peptone dextrose (YPD) agar at 30 °C. A yeast suspension of 1×10^6 to 5×10^6 CFU mL^−1 (as determined by OD530) was prepared from five colonies. The suspension was diluted in supplemented YNB and added to each well of the compound‐containing plates giving a final cell density of fungi suspension of 2.5×10^3 CFU mL^−1 and 2 % DMSO. All plates were covered and incubated at 35 °C for 36 h without shaking.
(§3) Two biological replicates x2 technical replicates were conducted on separate days (final n=4).
(§4) Growth inhibition of C. albicans, C. tropicalis and C. glabrata was determined by measuring absorbance at 630 nm (OD630), while the growth inhibition of Cryptococcus spp. and C. auris was determined by measuring the difference in absorbance between 600 and 570 nm (OD600‐570), after the addition of resazurin (0.01 % final concentration) and incubation at 35 °C for 2 h. The absorbance was measured using a Biotek Multiflo Synergy HTX plate reader.
(§5) The percentage of growth inhibition was calculated for each well, using the negative control (media only) and positive control (fungi without inhibitors) on the same plate. […] In addition, the maximal percentage of growth inhibition is reported as D Max, indicating any compounds with marginal activity.

The subject of assay [2] is C. auris CBS10913. The assay is classed as cell-based, Candida auris. As to the method: as §1, §2, §3, §4, §5
Assay [3] concerns C. glabrata ATCC 90030. The assay is classed as cell-based, Candida glabrata. As to the method:
as §1, §2, §3, §4, §5

In assay [4] the test system is C. neoformans ATCC 208821. The assay is classed as cell-based, Cryptococcus neoformans. As to the method:
as §1, §2, §3, §4, §5

Assay [5] has as its system C. deuterogattii ATCC 32609. The assay is classed as cell-based, Cryptococcus deuterogattii. As to the method: as §1, §2, §3, §4, §5
In assay [6] the test system is C. albicans ATCC 90028. The assay is classed as cell-based, Candida albicans. Particulars: for MIC: Candida albicans, ATCC90028. As to the method:
as §1, §2, §3, §4, §5

Read-outs that look alike come from different tables or passages of the source.

For `OC(Cn1cncn1)(Cn1cncn1)c1ccc(F)cc1F` [fluconazole], the MIC in assay [1] (Candida tropicalis, ATCC750, Table S3, Table 1 values in µM) was 13.1 µM; in assay [1] (Candida tropicalis, ATCC750, range of MICs, n=4), 4 µg/mL; in assay [1] (second Table S4, free ligands), 13.1 µM; in assay [2] (Candidozyma auris, CBS10913, Table S3, Table 1 values in µM, read-out: MIC, Candida auris CBS10913), over 104 µM; in assay [2] (Candidozyma auris, CBS10913, range of MICs, n=4, read-out: MIC, C. auris CBS10913) it was at least 32 µg/mL; in assay [2] (second Table S4, free ligands, read-out: MIC, Candida auris CBS10913) it was over 104 µM. Further, the MIC is over 104 µM in assay [3] (Nakaseomyces glabratus, ATCC90030, Table S3, Table 1 values in µM, read-out: MIC, Candida glabrata ATCC 90030); over 32 µg/mL in assay [3] (Nakaseomyces glabratus, ATCC90030, range of MICs, n=4, read-out: MIC, C. glabrata ATCC 90030); over 104 µM in assay [3] (second Table S4, free ligands, read-out: MIC, Candida glabrata ATCC 90030); 26.1 µM in assay [4] (Cryptococcus neoformans, ATCC208821, Table S3, Table 1 values in µM, read-out: MIC, Cryptococcus neoformans ATCC 208821); 8 µg/mL in assay [4] (Cryptococcus neoformans, ATCC208821, range of MICs, n=4, read-out: MIC, C. neoformans ATCC 208821); 26.1 µM in assay [4] (second Table S4, free ligands, read-out: MIC, Cryptococcus neoformans ATCC 208821). The MIC in assay [5] (Cryptococcus deuterogattii, ATCC32609, Table S3, Table 1 values in µM, read-out: MIC, Cryptococcus deuterogattii ATCC 32609) was over 104 µM; in assay [5] (Cryptococcus deuterogattii, ATCC32609, range of MICs, n=4, read-out: MIC, C. deuterogattii ATCC 32609), over 32 µg/mL; in assay [5] (second Table S4, free ligands, read-out: MIC, Cryptococcus deuterogattii ATCC 32609), over 104 µM; in assay [6] (Table S3, Table 1 values in µM, read-out: MIC, Candida albicans ATCC 90028), 0.816 to 1.63 µM; in assay [6] (range of MICs, n=4, read-out: MIC, C. albicans ATCC 90028), 0.25 to 0.5 µg/mL. Also, the “MIC, Candida albicans ATCC 90028” value in assay [6] (second Table S4, free ligands) lay within 0.816 to 1.63 µM.
